Assay results: patent US20230233500A1, “Gasdermin D (GSDMD) Succination for the Treatment of Inflammatory Disease” (University of Massachusetts, priority 2020, published 2023)
“Also recorded” adds a separate entry of the source. Where a name gives a salt, the structure may show the parent alone.

What was measured:
[1] = biological target: T1, caspase 1-GSDMD interactions (Mus musculus, UniProt Q9D8T2); test: Caspase 1-GSDMD interaction and caspase 1 processing in BMDMs; assay type: cell-based
T1 construct: Immunoblots of casplp20 and GSDMD in BMDMs (I); endogenous in cells; host or cells: primary mouse BMDMs
T1 sequence (Q9D8T2 1-487): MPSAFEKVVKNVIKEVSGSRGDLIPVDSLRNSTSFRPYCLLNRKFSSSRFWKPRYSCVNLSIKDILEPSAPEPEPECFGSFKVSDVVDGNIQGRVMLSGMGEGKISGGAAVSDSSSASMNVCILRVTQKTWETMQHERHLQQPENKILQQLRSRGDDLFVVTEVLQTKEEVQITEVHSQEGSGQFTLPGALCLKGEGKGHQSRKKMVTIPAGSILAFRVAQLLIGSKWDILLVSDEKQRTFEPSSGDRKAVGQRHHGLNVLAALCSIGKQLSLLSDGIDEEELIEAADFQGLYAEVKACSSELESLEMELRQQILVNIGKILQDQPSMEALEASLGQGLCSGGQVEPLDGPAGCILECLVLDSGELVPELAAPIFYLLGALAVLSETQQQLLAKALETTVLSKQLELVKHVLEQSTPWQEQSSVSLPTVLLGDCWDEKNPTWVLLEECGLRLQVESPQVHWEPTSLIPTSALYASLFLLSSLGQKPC
Description: FIGS. 2A-J. Succination of GSDMD inhibits pyroptosis. Immunoblot of GSDMD in streptavidin pulldown from clicked lysates treated as indicated (A-B). Representative MS spectra of 2-monomethyl and 2-dimethylsuccination of GSDMD immunoprecipitated from fumarate treated BMDMs (C-D). Immunoblot of GSDMD in clicked lysates from transfected HEK293T. Cell death of HEK293T transfected as indicated (F-H). Immunoblots of casplp20 and GSDMD in BMDMs (I). Immunoblots of an in vitro binding assay of succinated and non-succinated GSDMD incubated with caspase 1 beads (J). A, B, F, J, […] representative images from three independent experiments. C, D, E, representative mass spec spectra from two independent experiments. H, I pooled data from three independent experiments. ***, P<0.001 (One-way anova). Error bars show means±SEM.
Primary BMDMs from WT or GsdmD^−/− mice were cultured in 12-well plates (1×10^6 cells per ml; 1 ml) or 10 cm dishes (2×10^6 cells per ml; 10 ml). HEK293T cells (2.5×10^5 cells per ml; 3 ml) were cultured in 6-well plates and transfected with FLAG-tagged GSDMD constructs where indicated. For cell lysate analysis cells were lysed directly in 1× Lamelli sample buffer. […] Samples were resolved by SDS-PAGE and stained using simply blue safe stain or transferred to nitrocellulose membranes and analyzed by immunoblot. […]

h.GSDMD = biological target: T2, h.GSDMD (Homo sapiens, UniProt P57764); test: In vitro succination reaction with LC-MS/MS peptide mapping; assay type: binding; conditions: recombinant h.GSDMD
T2 sequence (P57764 1-484): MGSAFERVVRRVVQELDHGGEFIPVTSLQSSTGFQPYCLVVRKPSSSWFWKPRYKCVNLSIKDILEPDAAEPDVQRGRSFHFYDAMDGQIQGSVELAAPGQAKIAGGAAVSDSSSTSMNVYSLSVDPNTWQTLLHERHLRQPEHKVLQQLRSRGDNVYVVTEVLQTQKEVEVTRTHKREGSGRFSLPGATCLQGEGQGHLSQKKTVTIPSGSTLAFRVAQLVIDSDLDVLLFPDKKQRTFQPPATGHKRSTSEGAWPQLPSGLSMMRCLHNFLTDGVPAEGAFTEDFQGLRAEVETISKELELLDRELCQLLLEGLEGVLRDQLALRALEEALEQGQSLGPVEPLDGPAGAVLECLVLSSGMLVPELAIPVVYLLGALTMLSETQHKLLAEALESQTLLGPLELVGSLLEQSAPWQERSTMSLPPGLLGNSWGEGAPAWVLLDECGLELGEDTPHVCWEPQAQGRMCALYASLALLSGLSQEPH

EAE in WT mice = test: Experimental autoimmune encephalomyelitis (EAE); assay type: in vivo, mouse
[2] = flow cytometry, spinal cord and brain

COC(=O)/C=C/C(=O)OC [Fumarate, Dimethyl fumarate]
processing of caspase 1 ([1]; casp1 p20 immunoblot): not impaired | caspase 1-GSDMD interactions ([1]; immunoblots): completely blocked | In vitro cysteine succination sites (h.GSDMD): same cysteines | In vitro cysteine succination sites (h.GSDMD; listed as DMF): Cys309; also recorded: Cys467; also recorded: Cys56; also recorded: Cys191; also recorded: Cys268 | onset of EAE (clinical scores) (EAE in WT mice; WT mice, fumarate daily after EAE induction): blocked | Th1 (IFN-γ+) cells in the CNS (EAE in WT mice; flow cytometry): reduced | Th17 (IL-17A+) cells in the CNS (EAE in WT mice; flow cytometry): reduced | infiltration of CD4+ T-cells to the CNS (EAE in WT mice; [2]): reduced infiltration | infiltration of CD8+ T-cells to the CNS (EAE in WT mice; [2]): reduced infiltration | infiltration of myeloid cells to the CNS (EAE in WT mice; [2]): reduced infiltration | neuropathology (EAE in WT mice; spinal cord sections): reduced | demyelination (EAE in WT mice; spinal cord sections, LFB): reduced | GSDMD-N in CNS tissue (EAE in WT mice; spinal cord, staining and immunoblot): reduced
